Data published in patent US5948780A, “Method for treating and preventing heart failure and ventricular dilatation” (priority 1997, dated 1999).

molecular target: MMP-3 (stromelysin) (Homo sapiens, UniProt P08254); experiment: biochemical; assay type: biochemical; conditions: read-out: IC50 MMP3
Sequence (P08254 100-477): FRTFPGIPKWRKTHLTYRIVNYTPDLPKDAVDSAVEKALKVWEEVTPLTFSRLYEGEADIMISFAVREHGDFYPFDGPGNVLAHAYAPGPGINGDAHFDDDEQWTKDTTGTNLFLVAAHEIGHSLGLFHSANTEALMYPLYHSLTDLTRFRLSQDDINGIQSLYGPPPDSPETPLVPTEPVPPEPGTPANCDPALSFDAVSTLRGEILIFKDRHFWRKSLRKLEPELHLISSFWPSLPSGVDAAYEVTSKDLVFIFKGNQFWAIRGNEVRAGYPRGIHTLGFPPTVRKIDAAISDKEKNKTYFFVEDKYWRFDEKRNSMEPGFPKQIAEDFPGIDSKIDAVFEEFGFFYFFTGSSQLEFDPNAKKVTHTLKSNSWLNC
Description: (§1) The assays measure the amount by which a test compound reduces the hydrolysis of a thiopeptolide substrate caused by a matrix metalloproteinase enzyme.
(§2) Thiopeptolide substrates show virtually no decomposition or hydrolysis in the absence of a matrix metalloproteinase enzyme. A typical thiopeptolide substrate commonly utilized for assays is Ac-Pro-Leu-Gly-thioester-Leu-Leu-Gly-O Et. […] Assays are carried out with and without matrix metalloproteinase inhibitor compounds, and the amount of hydrolysis is compared for a determination of inhibitory activity of the test compounds.

| Compound | IC50 [nM] |
| --- | --- |
| O=C(O)CCC(O)c1ccc(-c2ccc(Cl)cc2)cc1 (racemic) [(±)-4-(4'-Chloro-biphenyl-4-yl)-4-hydroxy-butyric acid] | 280 |
| O=C(O)CCC(=NO)c1ccc(-c2ccc(Br)cc2)cc1 [4-(4'-Bromo-biphenyl-4-yl)-4-hydroxyimino-butyric acid] | 110 |
| CN(C)N=C(CCC(=O)O)c1ccc(-c2ccc(Cl)cc2)cc1 [4-(4'-Chloro-biphenyl-4-yl)-4-(dimethylhydrazono)-butyric acid] | 930 |
| O=C(O)CCC(=NO)c1ccc(-c2ccc(Cl)cc2)cc1 [4-(4'-Chloro-biphenyl-4-yl)-4-hydroxyimino-butyric acid] | 120 |
| O=C(Cc1ccccc1)N[C@@H](CC(=O)c1ccc2oc3ccccc3c2c1)C(=O)O [(S)-4-Dibenzofuran-2-yl-4-oxo-2-phenylacetylamino-butyric acid] | 330 |
| CC(C)CC(CC(=O)NO)C(=O)N[C@@H](CC(C)C)C(=O)N[C@@H](Cc1ccccc1)C(N)=O (stereo partly shown) [Compound U24522, reference compound] | 20 |

molecular target: T1, MMP-2 (Gelatinase A) (Homo sapiens, UniProt P08253); experiment: biochemical; conditions: read-out: IC50 MMP2
T1 sequence (P08253 110-660): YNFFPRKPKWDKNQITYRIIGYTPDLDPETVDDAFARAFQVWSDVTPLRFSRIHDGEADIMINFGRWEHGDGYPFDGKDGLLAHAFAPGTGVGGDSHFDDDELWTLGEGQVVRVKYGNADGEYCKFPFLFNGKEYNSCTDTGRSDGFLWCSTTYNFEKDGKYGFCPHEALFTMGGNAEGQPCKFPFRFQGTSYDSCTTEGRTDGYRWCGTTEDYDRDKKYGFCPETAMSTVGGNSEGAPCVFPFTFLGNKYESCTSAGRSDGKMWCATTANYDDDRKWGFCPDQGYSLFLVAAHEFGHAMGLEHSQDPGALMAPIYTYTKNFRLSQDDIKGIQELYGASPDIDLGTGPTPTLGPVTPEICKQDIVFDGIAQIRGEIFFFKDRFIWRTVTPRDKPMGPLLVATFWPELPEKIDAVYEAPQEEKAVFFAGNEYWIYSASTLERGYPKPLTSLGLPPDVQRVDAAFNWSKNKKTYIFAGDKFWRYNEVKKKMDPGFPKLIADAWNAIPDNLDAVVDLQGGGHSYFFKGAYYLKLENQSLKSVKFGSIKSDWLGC
Description: as §1, §2

| Compound | IC50 [nM] |
| --- | --- |
| O=C(Cc1ccccc1)N[C@@H](CC(=O)c1ccc2oc3ccccc3c2c1)C(=O)O [(S)-4-Dibenzofuran-2-yl-4-oxo-2-phenylacetylamino-butyric acid] | 84 |
